Source: the NIST ThermoML archive (doi:10.1007/s10765-007-0223-x)
± gives the expanded uncertainty stated by the source.

Assay: xn = mol fraction of the nth substance listed
Details: 101 kPa, Liquid; for speed of sound: Single path-length method

## CCc1ccccc1 [ethylbenzene] + COC(C)(C)C
305.65 K, x2 = 0
  mass density: 855.837 ± 0.39 kg/m3
305.65 K, x2 = 0.046
  mass density: 850.573 ± 0.41 kg/m3
305.65 K, x2 = 0.106
  mass density: 843.52 ± 0.42 kg/m3
305.65 K, x2 = 0.212
  mass density: 831.061 ± 0.44 kg/m3
305.65 K, x2 = 0.299
  mass density: 820.447 ± 0.46 kg/m3
305.65 K, x2 = 0.402
  mass density: 807.578 ± 0.47 kg/m3
305.65 K, x2 = 0.503
  mass density: 796.166 ± 0.49 kg/m3
305.65 K, x2 = 0.6
  mass density: 782.111 ± 0.52 kg/m3
305.65 K, x2 = 0.701
  mass density: 768.689 ± 0.53 kg/m3
305.65 K, x2 = 0.822
  mass density: 752.062 ± 0.56 kg/m3
305.65 K, x2 = 0.899
  mass density: 741.065 ± 0.58 kg/m3
305.65 K, x2 = 0.948
  mass density: 733.91 ± 0.59 kg/m3
308.15 K, x2 = 0
  speed of sound: 1276.8 ± 2.1 m/s
  mass density: 853.622 ± 0.39 kg/m3
308.15 K, x2 = 0.046
  speed of sound: 1264.9 ± 2.1 m/s
  mass density: 848.347 ± 0.41 kg/m3
308.15 K, x2 = 0.106
  speed of sound: 1249.5 ± 2.1 m/s
  mass density: 841.274 ± 0.43 kg/m3
308.15 K, x2 = 0.212
  speed of sound: 1221.9 ± 2.1 m/s
  mass density: 828.779 ± 0.44 kg/m3
308.15 K, x2 = 0.299
  speed of sound: 1198.5 ± 2.1 m/s
  mass density: 818.132 ± 0.46 kg/m3
308.15 K, x2 = 0.402
  speed of sound: 1169.2 ± 2.1 m/s
  mass density: 805.218 ± 0.48 kg/m3
308.15 K, x2 = 0.503
  speed of sound: 1144 ± 2.1 m/s
  mass density: 793.77 ± 0.5 kg/m3
308.15 K, x2 = 0.6
  speed of sound: 1112.2 ± 2.1 m/s
  mass density: 779.66 ± 0.52 kg/m3
308.15 K, x2 = 0.701
  speed of sound: 1082.7 ± 2.1 m/s
  mass density: 766.192 ± 0.54 kg/m3
308.15 K, x2 = 0.822
  speed of sound: 1045.6 ± 2.1 m/s
  mass density: 749.497 ± 0.56 kg/m3
308.15 K, x2 = 0.899
  speed of sound: 1021 ± 2.1 m/s
  mass density: 738.451 ± 0.58 kg/m3
308.15 K, x2 = 0.948
  speed of sound: 1005.2 ± 2.1 m/s
  mass density: 731.264 ± 0.59 kg/m3
310.65 K, x2 = 0
  speed of sound: 1266.5 ± 2.1 m/s
  mass density: 851.407 ± 0.39 kg/m3
310.65 K, x2 = 0.046
  speed of sound: 1254.8 ± 2.1 m/s
  mass density: 846.119 ± 0.42 kg/m3
310.65 K, x2 = 0.106
  speed of sound: 1239.2 ± 2.1 m/s
  mass density: 839.024 ± 0.43 kg/m3
310.65 K, x2 = 0.212
  speed of sound: 1211.5 ± 2.1 m/s
  mass density: 826.493 ± 0.45 kg/m3
310.65 K, x2 = 0.299
  speed of sound: 1188.1 ± 2.1 m/s
  mass density: 815.815 ± 0.46 kg/m3
310.65 K, x2 = 0.402
  speed of sound: 1158.6 ± 2.1 m/s
  mass density: 802.853 ± 0.48 kg/m3
310.65 K, x2 = 0.503
  speed of sound: 1133.2 ± 2.1 m/s
  mass density: 791.367 ± 0.5 kg/m3
310.65 K, x2 = 0.6
  speed of sound: 1101.4 ± 2.1 m/s
  mass density: 777.204 ± 0.52 kg/m3
310.65 K, x2 = 0.701
  speed of sound: 1071.8 ± 2.1 m/s
  mass density: 763.689 ± 0.54 kg/m3
310.65 K, x2 = 0.822
  speed of sound: 1034.6 ± 2.1 m/s
  mass density: 746.926 ± 0.57 kg/m3
310.65 K, x2 = 0.899
  speed of sound: 1009.8 ± 2.1 m/s
  mass density: 735.825 ± 0.58 kg/m3
310.65 K, x2 = 0.948
  speed of sound: 993.9 ± 2.1 m/s
  mass density: 728.607 ± 0.59 kg/m3
313.15 K, x2 = 0
  speed of sound: 1256.3 ± 2.1 m/s
  mass density: 849.186 ± 0.4 kg/m3
313.15 K, x2 = 0.046
  speed of sound: 1244.6 ± 2.1 m/s
  mass density: 843.886 ± 0.42 kg/m3
313.15 K, x2 = 0.106
  speed of sound: 1229 ± 2.1 m/s
  mass density: 836.773 ± 0.43 kg/m3
313.15 K, x2 = 0.212
  speed of sound: 1201 ± 2.1 m/s
  mass density: 824.202 ± 0.45 kg/m3
313.15 K, x2 = 0.299
  speed of sound: 1177.5 ± 2.1 m/s
  mass density: 813.486 ± 0.47 kg/m3
313.15 K, x2 = 0.402
  speed of sound: 1148 ± 2.1 m/s
  mass density: 800.48 ± 0.48 kg/m3
313.15 K, x2 = 0.503
  speed of sound: 1122.5 ± 2.1 m/s
  mass density: 788.959 ± 0.5 kg/m3
313.15 K, x2 = 0.6
  speed of sound: 1090.5 ± 2.1 m/s
  mass density: 774.736 ± 0.53 kg/m3
313.15 K, x2 = 0.701
  speed of sound: 1060.8 ± 2.1 m/s
  mass density: 761.174 ± 0.55 kg/m3
313.15 K, x2 = 0.822
  speed of sound: 1023.4 ± 2.1 m/s
  mass density: 744.341 ± 0.57 kg/m3
313.15 K, x2 = 0.899
  speed of sound: 998.53 ± 2.1 m/s
  mass density: 733.188 ± 0.59 kg/m3
313.15 K, x2 = 0.948
  speed of sound: 982.63 ± 2.1 m/s
  mass density: 725.934 ± 0.6 kg/m3
315.65 K, x2 = 0
  speed of sound: 1246.1 ± 2.1 m/s
  mass density: 846.964 ± 0.4 kg/m3
315.65 K, x2 = 0.046
  speed of sound: 1234.5 ± 2.1 m/s
  mass density: 841.648 ± 0.42 kg/m3
315.65 K, x2 = 0.106
  speed of sound: 1218.7 ± 2.1 m/s
  mass density: 834.515 ± 0.44 kg/m3
315.65 K, x2 = 0.212
  speed of sound: 1190.8 ± 2.1 m/s
  mass density: 821.909 ± 0.45 kg/m3
315.65 K, x2 = 0.299
  speed of sound: 1166.9 ± 2.1 m/s
  mass density: 811.155 ± 0.47 kg/m3
315.65 K, x2 = 0.402
  speed of sound: 1137.5 ± 2.1 m/s
  mass density: 798.107 ± 0.49 kg/m3
315.65 K, x2 = 0.503
  speed of sound: 1111.9 ± 2.1 m/s
  mass density: 786.547 ± 0.51 kg/m3
315.65 K, x2 = 0.6
  speed of sound: 1079.6 ± 2.1 m/s
  mass density: 772.257 ± 0.53 kg/m3
315.65 K, x2 = 0.701
  speed of sound: 1050 ± 2.1 m/s
  mass density: 758.651 ± 0.55 kg/m3
315.65 K, x2 = 0.822
  speed of sound: 1012.4 ± 2.1 m/s
  mass density: 741.744 ± 0.57 kg/m3
315.65 K, x2 = 0.899
  speed of sound: 987.36 ± 2.1 m/s
  mass density: 730.538 ± 0.59 kg/m3
315.65 K, x2 = 0.948
  speed of sound: 971.33 ± 2.1 m/s
  mass density: 723.249 ± 0.6 kg/m3
318.15 K, x2 = 0
  speed of sound: 1236.1 ± 2.1 m/s
  mass density: 844.741 ± 0.4 kg/m3
318.15 K, x2 = 0.046
  speed of sound: 1224.5 ± 2.1 m/s
  mass density: 839.413 ± 0.43 kg/m3
318.15 K, x2 = 0.106
  speed of sound: 1208.7 ± 2.1 m/s
  mass density: 832.261 ± 0.44 kg/m3
318.15 K, x2 = 0.212
  speed of sound: 1180.5 ± 2.1 m/s
  mass density: 819.612 ± 0.46 kg/m3
318.15 K, x2 = 0.299
  speed of sound: 1155.9 ± 2.1 m/s
  mass density: 808.784 ± 0.47 kg/m3
318.15 K, x2 = 0.402
  speed of sound: 1127 ± 2.1 m/s
  mass density: 795.73 ± 0.49 kg/m3
318.15 K, x2 = 0.503
  speed of sound: 1101.4 ± 2.1 m/s
  mass density: 784.128 ± 0.51 kg/m3
318.15 K, x2 = 0.6
  speed of sound: 1068.9 ± 2.1 m/s
  mass density: 769.777 ± 0.53 kg/m3
318.15 K, x2 = 0.701
  speed of sound: 1039.2 ± 2.1 m/s
  mass density: 756.122 ± 0.55 kg/m3
318.15 K, x2 = 0.822
  speed of sound: 1001.4 ± 2.1 m/s
  mass density: 739.136 ± 0.58 kg/m3
318.15 K, x2 = 0.899
  speed of sound: 976.23 ± 2.1 m/s
  mass density: 727.875 ± 0.6 kg/m3
318.15 K, x2 = 0.948
  speed of sound: 960.13 ± 2.1 m/s
  mass density: 720.551 ± 0.61 kg/m3
320.65 K, x2 = 0
  speed of sound: 1226.1 ± 2.1 m/s
  mass density: 842.518 ± 0.41 kg/m3
320.65 K, x2 = 0.046
  speed of sound: 1214.5 ± 2.1 m/s
  mass density: 837.173 ± 0.43 kg/m3
320.65 K, x2 = 0.106
  speed of sound: 1198.6 ± 2.1 m/s
  mass density: 830.003 ± 0.44 kg/m3
320.65 K, x2 = 0.212
  speed of sound: 1170.4 ± 2.1 m/s
  mass density: 817.315 ± 0.46 kg/m3
320.65 K, x2 = 0.299
  speed of sound: 1146 ± 2.1 m/s
  mass density: 806.474 ± 0.48 kg/m3
320.65 K, x2 = 0.402
  speed of sound: 1116.8 ± 2.1 m/s
  mass density: 793.356 ± 0.49 kg/m3
320.65 K, x2 = 0.503
  speed of sound: 1091 ± 2.1 m/s
  mass density: 781.711 ± 0.52 kg/m3
320.65 K, x2 = 0.6
  speed of sound: 1058.7 ± 2.1 m/s
  mass density: 767.333 ± 0.54 kg/m3
320.65 K, x2 = 0.701
  speed of sound: 1028.4 ± 2.1 m/s
  mass density: 753.581 ± 0.56 kg/m3
320.65 K, x2 = 0.822
  speed of sound: 990.46 ± 2.1 m/s
  mass density: 736.516 ± 0.58 kg/m3
320.65 K, x2 = 0.899
  speed of sound: 965.11 ± 2.1 m/s
  mass density: 725.199 ± 0.6 kg/m3
320.65 K, x2 = 0.948
  speed of sound: 948.99 ± 2.1 m/s
  mass density: 717.839 ± 0.61 kg/m3
323.15 K, x2 = 0
  speed of sound: 1216.3 ± 2.1 m/s
  mass density: 840.306 ± 0.41 kg/m3
323.15 K, x2 = 0.046
  speed of sound: 1204.7 ± 2.1 m/s
  mass density: 834.949 ± 0.43 kg/m3
323.15 K, x2 = 0.106
  speed of sound: 1188.8 ± 2.1 m/s
  mass density: 827.754 ± 0.45 kg/m3
323.15 K, x2 = 0.212
  speed of sound: 1160.5 ± 2.1 m/s
  mass density: 815.028 ± 0.47 kg/m3
323.15 K, x2 = 0.299
  speed of sound: 1136.3 ± 2.1 m/s
  mass density: 804.174 ± 0.48 kg/m3
323.15 K, x2 = 0.402
  speed of sound: 1106.9 ± 2.1 m/s
  mass density: 791.012 ± 0.5 kg/m3
323.15 K, x2 = 0.503
  speed of sound: 1080.8 ± 2.1 m/s
  mass density: 779.302 ± 0.52 kg/m3
323.15 K, x2 = 0.6
  speed of sound: 1048.8 ± 2.1 m/s
  mass density: 764.898 ± 0.54 kg/m3
323.15 K, x2 = 0.701
  speed of sound: 1017.8 ± 2.1 m/s
  mass density: 751.042 ± 0.56 kg/m3
323.15 K, x2 = 0.822
  speed of sound: 979.73 ± 2.1 m/s
  mass density: 733.902 ± 0.59 kg/m3
323.15 K, x2 = 0.899
  speed of sound: 954.17 ± 2.1 m/s
  mass density: 722.521 ± 0.6 kg/m3
323.15 K, x2 = 0.948
  speed of sound: 938 ± 2.1 m/s
  mass density: 715.125 ± 0.61 kg/m3
